# Results: patent US12227479B2, “Dihydropyridines for the treatment of cognitive impairment or traumatic brain injury” (Icahn School of Medicine at Mount Sinai, priority 2017, dated 2025)
# pIC50: −log10 of the molar value. Where “and” joins values, the source holds several entries; their conditions need not be identical. Identical values can stand only once. Entries after “also recorded” stand apart in the source; their conditions may differ. Like-named read-outs stand apart in the source and are kept apart here.
# How the values were obtained:
# synj1 5′-promoter region = assay: synj1 5′-promoter luciferase assay (GLuc/SEAP dual reporter) in ApoE4 cortical neurons; format: cell-based; conditions: for inhibition of synj1 transcription activities: luciferase assay; for pIC50: Cortical neurone, ApoE4 cortical neurons, 48 hours treatment, read-out: IC50 (synj1 transcriptional activity, luciferase assay)
# Procedure: The in vitro luciferase assay uses a dual reporter system of Gaussia luciferase (GLuc) and secreted alkaline phosphatase (SEAP) tagged synj1 5′-promoter region. […] (FIG. 2). DMSO-treated conditions were used as controls and results were presented as percentage of the control (±SEM). One-way ANOVA was performed followed by post-hoc multiple comparison tests to determine the significance of differences between drug-treated vs DMSO control. *p<0.05; N=5-17/condition.
# synj1 [1] = assay: Western blot of synj1 protein levels in wt cortical neurons; format: cell-based
# Procedure: Results were determined by measuring the synj1 protein levels as a percentage of the control (±SEM). One-way ANOVA was performed followed by post-hoc multiple comparison tests to determine the significance of differences between drug-treated vs DMSO control. **p<0.01; N=4-17/condition. […] DMSO-treated conditions were used as controls and results were presented as percentage of the control (±SEM). […] FIGS. 3A, B and C). […] FIGS. 3A, B and C). […] D) In vitro calcium channel inhibition assays. Results were presented as percentage of inhibition (±SEM). […] One-way ANOVA was performed followed by post-hoc multiple comparison tests to determine the significance of differences between drug-treated vs DMSO control. *p<0.05, **p<0.01, ***p<0.001; N=3/condition except in A) nimodipine-treated conditions with N=20.
# Aβ40 [2] = assay: ELISA of Aβ40 levels in wt cortical neuronal culture; format: cell-based; conditions: wt cortical neurons
# Procedure: (§1) DMSO-treated conditions were used as controls and results were presented as percentage of the control (±SEM). […] FIGS. 3A, B and C). […] FIGS. 3A, B and C). […] D) In vitro calcium channel inhibition assays. Results were presented as percentage of inhibition (±SEM). […] One-way ANOVA was performed followed by post-hoc multiple comparison tests to determine the significance of differences between drug-treated vs DMSO control. *p<0.05, **p<0.01, ***p<0.001; N=3/condition except in A) nimodipine-treated conditions with N=20.
# [3] = tested on: Ca2+- L type calcium channel (dihydropyridine site); assay: Calcium channel activity, Cerep radioligand displacement (dihydropyridine site, antagonist); format: binding
# Procedure: [table] […] DMSO-treated conditions were used as controls and results were presented as percentage of the control (±SEM). […] FIGS. 3A, B and C). […] FIGS. 3A, B and C). […] D) In vitro calcium channel inhibition assays. Results were presented as percentage of inhibition (±SEM). […] One-way ANOVA was performed followed by post-hoc multiple comparison tests to determine the significance of differences between drug-treated vs DMSO control. *p<0.05, **p<0.01, ***p<0.001; N=3/condition except in A) nimodipine-treated conditions with N=20.
# wt cortical neurons = assay: Observed toxicity in wt cortical neuron cultures; format: cell-based; conditions: 10 μM
# synj1 [4] = assay: Long-term daily IP treatment of AD transgenic mice: cortical brain synj1 levels; format: in vivo; conditions: APP/PS1 transgenic mouse, 2.5 mg/kg/day IP for 6 months, compared to Tg vehicle controls
# Procedure: (§2) Data is presented as % of wt control (vehicle-treated) time spent exploring novel objects. N=13-15/group. C) Cortical brain synj1 levels as well as D) PIP2 levels in Tg mice (vehicle-, nimodipine- or Example 9-treated) were compared to vehicle-treated controls (as 100%) in wildtype (wt) mice. N=7-13/group. One-way ANOVA was performed followed by post-hoc multiple comparison tests to determine the significance of differences between pairs of means. *p<0.05, **p<0.01, ***p<0.001, ****p<0.0001.
# Aβ42 [5] = assay: Long-term daily IP treatment of AD transgenic mice: brain Aβ42 levels; format: in vivo, mouse; conditions: 2.5 mg/kg/day IP for 6 months
# Procedure: (§3) N=5-7/group. […] One-way ANOVA was performed followed by post-hoc multiple comparison tests to determine the significance of differences between drug-treated vs DMSO control. *p<0.05, **p<0.01.
# Aβ40 [6] = assay: Long-term daily IP treatment of AD transgenic mice: brain Aβ40 levels; format: in vivo, mouse; conditions: 2.5 mg/kg/day IP for 6 months
# Procedure: as §3
# APP/PS1 transgenic mouse = assay: Long-term daily IP treatment of AD transgenic mice: NOR and Y maze behavior tests; format: in vivo; conditions: 2.5 mg/kg/day IP for 6 months, vs vehicle Tg mice
# Procedure: as §2
# ApoE4 mice = assay: Long-term daily oral treatment of ApoE KI mice: NOR test; format: in vivo, mouse; conditions: 3 mg/kg/day oral for 6 months, vs vehicle-treated ApoE4 mice
# Procedure: FIG. 7 Long-term in vivo treatment of Example 9 via daily oral administration at 3 mg/kg/day in ApoE KI mice. […] Data is presented as a percentage of ApoE3 control (vehicle-treated) time spent exploring novel objects. N=12-13/group. Cortical brain B) synj1 levels as well as C) pTau levels in ApoE4 mice (vehicle- or Example 9-treated) were compared to vehicle-treated controls (as 100%) in ApoE3 mice. N=6-9/group. One-way ANOVA was performed followed by post-hoc multiple comparison tests to determine the significance of differences between pairs of means. *p<0.05, **p<0.01.
# Aβ40 [7] = assay: Long-term daily oral treatment of ApoE KI mice: brain Aβ40 levels; format: in vivo, mouse; conditions: 3 mg/kg/day oral
# Procedure: (§4) FIG. 8 Long-term in vivo treatment of Example 9 via daily oral administration at 3 mg/kg/day in ApoE KI mice. […] N=5-8/group. Vehicle-treated conditions were used as controls and results were presented as percentage of the control (±SEM). One-way ANOVA was performed followed by post-hoc multiple comparison tests to determine the significance of differences between drug-treated vs DMSO control. *p<0.05, ***p<0.001.
# Aβ42 [8] = assay: Long-term daily oral treatment of ApoE KI mice: brain Aβ42 levels; format: in vivo, mouse; conditions: 3 mg/kg/day oral
# Procedure: as §4
# [9] = Brain and blood exposure after PO administration to male CD-1 mice; format: in vivo, mouse; conditions: for concentration at 1 h / concentration at 3 h / Kp at 1 h / Kp at 3 h: mouse, PO 30 mg/kg, male CD-1 mice; for Kp at 1 h / Kp at 3 h: brain/blood, read-out: Brain/Blood ratio
# [10] = Blood pharmacokinetics after IV or PO administration to male CD-1 mice
# Aβ42 [11] = assay: ELISA of Aβ42 levels in wt cortical neuronal culture; format: cell-based; conditions: 10 μM, wt cortical neurons
# Procedure: as §1
# in vivo = conditions: male, CD-1, mouse
# [12] = APP/PS1 transgenic mouse neocortex, vs Tg vehicle
# [13] = male, CD-1, mouse, blood, iv, 1 mg/kg
# [14] = male, CD-1, mouse, blood, po, 30 mg/kg
compound,measurement,setting,value
"COCCOC(=O)C1=C(C)NC(C)=C(C(=O)OC(C)C)C1c1ccc(C(C)(C)C)cc1 (centres unmarked) [Example 9, 3-isopropyl 5-(2-methoxyethyl) 4-(4-(tert-butyl)phenyl)-2,6-dimethyl-1,4-dihydropyridine-3,5-dicarboxylate]",inhibition of synj1 transcription activities,synj1 5′-promoter region; 3 μM,44.4% inhibition.
same,pIC50,synj1 5′-promoter region,5.48
same,reduction of synj1 protein levels,synj1 [1]; 5 μM,62.4% and 62.3%
same,reduction of Aβ40 levels,Aβ40 [2]; 5 μM,82.6%
same,calcium channel inhibition,[3]; 1 nM,no calcium channel
same,calcium channel inhibition,[3]; 0.1 μM,81.3%
same,calcium channel inhibition compared to nimodipine (in words),[3]; versus nimodipine,attenuated calcium channel blockade effects; also recorded: Example 9 has attenuated calcium channel inhibition versus
same,toxicity in cortical neuron culture,wt cortical neurons,observed toxicities
same,reduction of synj1 protein levels in brain neocortical regions,synj1 [4],99.4%
same,levels of insoluble Aβ42 in Tg animal brains (in words),Aβ42 [5]; AD transgenic mice,trend of reduction
same,levels of soluble Aβ42 in Tg animal brains (in words),Aβ42 [5]; AD transgenic mice,Reduction
same,decrease in insoluble Aβ42 levels,Aβ42 [5]; [12],27.4%
same,decrease in soluble Aβ42 levels,Aβ42 [5]; [12],"insoluble Aβ42 levels, a 19.3% decrease in soluble Aβ42 levels,"
same,levels of insoluble Aβ40 in Tg animal brains (in words),Aβ40 [6]; AD transgenic mice,Reduction
same,decrease in insoluble Aβ40 levels,Aβ40 [6]; [12],23.7%
same,decrease in soluble Aβ40 levels,Aβ40 [6]; [12],12%
same,cognitive function in NOR and Y-maze tests (in words),APP/PS1 transgenic mouse,cognitive improvements
same,cognitive function in NOR test (in words),ApoE4 mice,cognitive improvements
same,levels of soluble Aβ40 in ApoE4 animal brains (in words),Aβ40 [7],reduction
same,levels of insoluble Aβ42 in ApoE4 animal brains (in words),Aβ42 [8],trend of reduction
same,levels of soluble Aβ42 in ApoE4 animal brains (in words),Aβ42 [8],reduction
same,CNS penetrability (in words),[9]; compared with nimodipine,better than nimodipine
same,concentration at 1 h,"[9]; blood, read-out: Blood conc.",518 ng/mL
same,concentration at 3 h,"[9]; blood, read-out: Blood conc.",607 ng/mL
same,Kp at 1 h,[9],1.2
same,Kp at 3 h,[9],0.7
same,concentration at 1 h,"[9]; brain, read-out: Brain conc.",604 ng/mL
same,concentration at 3 h,"[9]; brain, read-out: Brain conc.",421 ng/mL
same,oral bioavailability (in words),[10]; compared with nimodipine,better than nimodipine
same,AUC,[10]; [13],189 ng·h/mL
same,Cmax,[10]; [13],228 ng/mL
same,Vd,[10]; [13],8.2 L/kg
same,clearance,[10]; [13],85 mL/min/kg
same,half-life,[10]; [13],1.68 h
same,bioavailability,"[10]; male, CD-1, mouse, blood, oral, 30 mg/kg",73%
same,AUC,[10]; [14],4120 ng·h/mL
same,Cmax,[10]; [14],1010 ng/mL
same,half-life,[10]; [14],0.84 h
"COCCOC(=O)C1=C(C)NC(C)=C(C(=O)OC(C)C)C1c1ccc(C(F)(F)F)cc1 (centres unmarked) [Example 6, 3-isopropyl 5-(2-methoxyethyl) 2,6-dimethyl-4-(4-(trifluoromethyl)phenyl)-1,4-dihydropyridine-3,5-dicarboxylate]",pIC50,synj1 5′-promoter region,5.72
same,toxicity in cortical neuron culture,wt cortical neurons,observed toxicities
COCCOC(=O)C1=C(C)NC(C)=C(C(=O)OC(C)C)C1c1cccc([N+](=O)[O-])c1 (racemic) [nimodipine],inhibition of synj1 transcription activities,synj1 5′-promoter region; 10 μM,Nimodipine at 10 μM achieved a 43.0% inhibition of synj1
same,pIC50,synj1 5′-promoter region,5.40
same,reduction of synj1 protein levels,synj1 [1]; 10 μM,26.6%
same,reduction of Aβ40 levels,Aβ40 [2]; 10 μM,47.0%
same,reduction of Aβ40 levels,"Aβ40 [2]; 10 μM, listed as Nimodipine","synj1 protein levels, a 47% reduction of Aβ40 levels and a"
same,reduction of Aβ42 levels,Aβ42 [11],12.1%
same,reduction of Aβ42 levels,Aβ42 [11]; listed as Nimodipine,12.1% reduction of Aβ42 levels. Example 9 at 5 μM exhibited a
same,reduction of synj1 protein levels in brain neocortical regions,synj1 [4],75.8%
same,decrease in soluble Aβ40 levels,Aβ40 [6]; [12],24.7%
same,concentration at 1 h,"[9]; blood, read-out: Blood conc.",70 ng/mL
same,concentration at 3 h,"[9]; blood, read-out: Blood conc.",62 ng/mL
same,Kp at 1 h,[9],1.9
same,Kp at 3 h,[9],1
same,concentration at 1 h,"[9]; brain, read-out: Brain conc.",136 ng/mL
same,concentration at 3 h,"[9]; brain, read-out: Brain conc.",62 ng/mL
same,bioavailability,in vivo,7%
same,AUC,"in vivo; iv, 1 mg/kg",187 ng·h/mL
same,Cmax,"in vivo; iv, 1 mg/kg",341 ng/mL
same,Vd,"in vivo; iv, 1 mg/kg",3.29 L/kg
same,clearance,"in vivo; iv, 1 mg/kg",88.8 mL/min/kg
same,half-life,"in vivo; iv, 1 mg/kg",0.58 h
same,AUC,"in vivo; po, 30 mg/kg",384 ng·h/mL
same,Cmax,"in vivo; po, 30 mg/kg",114 ng/mL
same,half-life,"in vivo; po, 30 mg/kg",7.27 h
COCCOC(=O)C1=C(C)NC(C)=C(C(=O)OC(C)C)C1c1ccc(OC(F)(F)F)cc1 (centres unmarked) [Example 7],toxicity in cortical neuron culture,wt cortical neurons,observed toxicities
